Patent US20120277209A1, “PYRAZINE COMPOUNDS AS PHOSPHODIESTERASE 10 INHIBITORS” (Amgen Inc., priority 2009, published 2012)

target: PDE10 (UniProt Q9Y233); experiment: PDE10 enzyme inhibition, IMAP TR-FRET assay (MPDE10A7 Enzyme Activity and Inhibition); assay type: biochemical; details: IC50 class against PDE10; read-out: IC50
Procedure, shortened: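 PDE10A enzyme or tissue homogenate preincubated with compounds 30 min at room temperature, then fluorescein-labelled cAMP or cGMP added for 60 min. IMAP binding reagent stop, TR-FRET read. Values are mean IC50s, grouped into five potency classes.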

| Compound | IC50 |
| --- | --- |
| O=C1CCCC(c2nccnc2Oc2ccc(Nc3nc4ccccc4s3)cc2)C1 (racemic) [Example 194, (rac)-3-(3-(4-(benzo[d]thiazol-2-ylamino)phenoxy)pyrazin-2-yl)cyclohexanone] | < 0.025 µM |
| CC(C)N1CCN(c2nccnc2Oc2ccc(Nc3nc4ccccc4s3)cc2)CC1=O [Example 91, 4-(3-(4-(benzo[d]thiazol-2-yl-amino)phenoxy)pyrazin-2-yl)-1-isopropylpiperazin-2-one] | 0.025 to 0.1 µM |
| COC(=O)N1CCC(c2nccnc2Oc2ccc(C(=O)c3nc4ccccc4[nH]3)cc2)CC1 [Example 227, methyl 4-(3-(4-(1H-benzo[d]imidazole-2-carbonyl)phenoxy)pyrazin-2-yl)piperidine-1-carboxylate] | < 0.025 µM |
| O=C(c1ccc(Oc2nccnc2OCC2CCOC2)cc1)c1nc2ccccc2[nH]1 (centres unmarked) [Example 171, (1H-benzo[d]imidazol-2-yl)(4-(3-((tetrahydrofuran-3-yl)methoxy)pyrazin-2-yloxy)phenyl)methanone] | 0.1 to 0.25 µM |
| O=C(O)C1CN(c2nccnc2Oc2ccc(Nc3nc4ccccc4s3)cc2)C1 [Example 78, 1-(3-(4-(benzo[d]thiazol-2-ylamino)phenoxy)pyrazin-2-yl)azetidine-3-carboxylic acid] | < 0.025 µM |
| Fc1ccc2nc(Nc3ccc(Oc4nccnc4Cl)cc3)sc2c1 [Example 62, N-(4-(3-CHLOROPYRAZIN-2-YLOXY)PHENYL)-6-FLUOROBENZO[D]THIAZOL-2-AMINE] | 1 to 5 µM |
| COc1cccc(-c2nccnc2Oc2ccc(C(=O)c3nc4ccccc4[nH]3)cc2)c1 [Example 128, (1H-benzo[d]imidazol-2-yl)(4-(3-(3-methoxyphenyl)pyrazin-2-yloxy)phenyl)methanone] | < 0.025 µM |
| c1ccc2[nH]c(Nc3ccc(Oc4nccnc4C4CCOCC4)cc3)nc2c1 [Example 207, N-(4-(3-(tetrahydro-2H-pyran-4-yl)pyrazin-2-yloxy)phenyl)-1H-benzo[d]imidazol-2-amine] | < 0.025 µM |
| O=C(c1ccc(Oc2nccnc2OCC2CC2)cc1)c1nc2ccccc2[nH]1 [Example 163, (1H-benzo[d]imidazol-2-yl)(4-(3-(cyclopropylmethoxy)pyrazin-2-yloxy)phenyl)methanone] | 0.25 to 1 µM |
| O=C(c1ccc(Oc2nccnc2C(=O)NCCO)cc1)c1nc2ccccc2[nH]1 [Example 258, 3-(4-(1H-benzo[d]imidazole-2-carbonyl)phenoxy)-N-(2-hydroxyethyl)pyrazine-2-carboxamide] | 0.025 to 0.1 µM |
| O=C(O)c1ccc(-c2nccnc2Oc2ccc(C(=O)c3nc4ccccc4[nH]3)cc2)cc1 [Example 127, 4-(3-(4-(1H-benzo[d]imidazole-2-carbonyl)phenoxy)pyrazin-2-yl)benzoic acid] | < 0.025 µM |
| COc1cncc(-c2nccnc2Oc2ccc(C(=O)c3nc4ccccc4[nH]3)cc2)c1 [Example 118, (1H-benzo[d]imidazol-2-yl)(4-(3-(5-methoxypyridin-3-yl)pyrazin-2-yloxy)phenyl)methanone] | < 0.025 µM |
| O=C(c1ccc(Oc2nccnc2OCCN2CCCC2)cc1)c1nc2ccccc2[nH]1 [Example 173, (1H-benzo[d]imidazol-2-yl)(4-(3-(2-(pyrrolidin-1-yl)ethoxy)pyrazin-2-yloxy)phenyl)methanone] | 0.1 to 0.25 µM |
| CC(C)n1c(C(=O)c2ccc(Oc3nccnc3N3CCOCC3)cc2)nc2ccccc21 [Example 6, (1-ISOPROPYL-1H-BENZO[D]IMIDAZOL-2-YL)(4-(3-MORPHOLINOPYRAZIN-2-YLOXY)PHENYL)METHANONE] | 0.025 to 0.1 µM |
| c1ccc2sc(Nc3ccc(Oc4nccnc4-c4cnc5[nH]ccc5c4)cc3)nc2c1 [Example 141, N-(4-(3-(1H-pyrrolo[2,3-b]pyridin-5-yl)pyrazin-2-yloxy)phenyl)benzo[d]thiazol-2-amine] | 0.025 to 0.1 µM |
| OC1C=C(c2nccnc2Oc2ccc(Nc3nc4ccccc4s3)c(F)c2)CCC1 (racemic) [Example 137, (rac)-3-(3-(4-(benzo[d]thiazol-2-ylamino)-3-fluorophenoxy)pyrazin-2-yl)cyclohex-2-enol] | < 0.025 µM |
| CC(=O)N1CCN(c2nccnc2Oc2ccc(Nc3nc4ccccc4s3)cc2)CC1 [Example 71, 1-(4-(3-(4-(benzo[d]thiazol-2-ylamino)phenoxy)pyrazin-2-yl)piperazin-1-yl)ethanone] | 0.025 to 0.1 µM |
| Fc1ccc2sc(Nc3ccc(Oc4nccnc4Cl)cc3)nc2c1 [Example 102, N-(4-(3-chloropyrazin-2-yloxy)-phenyl)-5-fluorobenzo[d]thiazol-2-amine] | 1 to 5 µM |

Next, values leading:

| IC50 | Compound |
| --- | --- |
| 0.025 to 0.1 µM | c1ccc2sc(Nc3ccc(Oc4nccnc4N4CCC5(CC4)OCCO5)cc3)nc2c1 [Example 99, N-(4-(3-(1,4-dioxa-8-azaspiro[4.5]-decan-8-yl)pyrazin-2-yloxy)phenyl)-benzo[d]thiazol-2-amine] |
| < 0.025 µM | O=C(c1ccc(Oc2nccnc2-c2cccnc2)cc1)c1nc2ccccc2[nH]1 [Example 123, (1H-benzo[d]imidazol-2-yl)(4-(3-(pyridin-3-yl)pyrazin-2-yloxy)phenyl)methanone] |
| 0.025 to 0.1 µM | O=C(c1ccc(Oc2nccnc2-c2cccc3ncccc23)cc1)c1nc2ccccc2[nH]1 [Example 130, (1H-benzo[d]imidazol-2-yl)(4-(3-(quinolin-5-yl)pyrazin-2-yloxy)phenyl)methanone] |
| < 0.025 µM | CN1CCC(c2nccnc2Oc2ccc(C(=O)c3nc4ccccc4[nH]3)cc2)=CC1=O [Example 252, 4-(3-(4-(1H-benzo[d]imidazole-2-carbonyl)phenoxy)pyrazin-2-yl)-1-methyl-5,6-dihydropyridin-2(1H)-one] |
| 0.025 to 0.1 µM | Fc1cc(-c2nccnc2Oc2ccc(Nc3nc4ccccc4s3)c(F)c2)ccn1 [Example 158, N-(2-fluoro-4-(3-(2-fluoropyridin-4-yl)pyrazin-2-yloxy)phenyl)benzo[d]thiazol-2-amine] |
| < 0.025 µM | COc1ccc(-c2nccnc2Oc2ccc(C(=O)c3nc4ccccc4[nH]3)cc2)cn1 [Example 121, (1H-benzo[d]imidazol-2-yl)(4-(3-(6-methoxypyridin-3-yl)pyrazin-2-yloxy)phenyl)methanone] |

same assay, conditions: PDE10 enzyme inhibition; average IC50 data for each compound; read-out: Average IC50

| Compound | IC50 |
| --- | --- |
| COC[C@H](C)NC(=O)c1nccnc1Oc1ccc(C(=O)c2nc3ccccc3[nH]2)cc1 [drawing 802] | 0.0454 µM |
| c1ccc2sc(Nc3ccc(Oc4nccnc4C4CCOCC4)cc3)nc2c1 [drawing 864] | 0.000606 µM |
| CC1(C)CCC(=O)[C@@H](c2nccnc2Oc2ccc(C(=O)c3nc4ccccc4[nH]3)cc2)C1 | 0.154 µM |
| CC(=O)N1CCC(c2nccnc2Oc2ccc(C(=O)c3nc4ccccc4n3C)cc2)CC1 [drawing 965] | 0.000174 µM |
| O=C(c1ccc(Oc2nccnc2N2CCC(C(=O)O)CC2)cc1)c1nc2ccccc2[nH]1 | 0.00118 µM |
| c1ccc2sc(Nc3ccc(Oc4nccnc4C4CCCC4)cc3)nc2c1 [drawing 948] | 0.00496 µM |
| C[C@@H](O)C1CCN(c2nccnc2Oc2ccc(C(=O)c3nc4ccccc4[nH]3)cc2)CC1 (stereo in doubt) | 0.000749 µM |
| O[C@@H]1C=C(c2nccnc2Oc2ccc(Nc3nc4ccccc4s3)c(F)c2)CCC1 (stereo in doubt) | 0.0079 µM |
| c1ccc2sc(Nc3ccc(Oc4nccnc4[C@H]4CCOC4)cc3)nc2c1 (stereo in doubt) | 0.00203 µM |
| COc1nc2ccccc2cc1-c1nccnc1Oc1ccc(C(=O)c2nc3ccccc3[nH]2)cc1 [drawing 943] | 0.224 µM |
| COC(=O)[C@H]1CCN(c2nccnc2Oc2ccc(Nc3nc4ccccc4s3)cc2)C1 (stereo in doubt) | 0.023 µM |
| CCOC(=O)C1CCN(c2nccnc2Oc2ccc(C(=O)c3nc4ccccc4[nH]3)cc2)CC1 | 0.00519 µM |

Other lines, results leading:

| IC50 | Compound |
| --- | --- |
| 0.0142 µM | O=C(c1ccc(Oc2nccnc2C2=CCC(F)(F)CC2)cc1)c1nc2ccccc2[nH]1 [drawing 862] |
| 0.00243 µM | c1ccc2sc(Nc3ccc(Oc4nccnc4[C@H]4CCCOC4)cc3)nc2c1 (stereo in doubt) |
| 0.00675 µM | N#CC1CN(c2nccnc2Oc2ccc(Nc3nc4ccccc4s3)cc2)C1 [drawing 776] |
| 0.00878 µM | Cc1ncccc1-c1nccnc1Oc1ccc(C(=O)c2nc3ccccc3n2C)cc1 [drawing 957] |
| 0.0638 µM | N#Cc1ccc(-c2nccnc2Oc2ccc(Nc3nc4ccccc4s3)cc2)cn1 [drawing 777] |
| 0.0076 µM | O=C(c1ccc(Oc2nccnc2N2CC[C@@H](O)C2)cc1)c1nc2ccccc2[nH]1 (stereo in doubt) |
| 0.00112 µM | O=C(c1ccc(Oc2nccnc2[C@H]2CCC[C@H](O)C2)cc1)c1nc2ccccc2[nH]1 [drawing 915] |
| 0.000661 µM | Fc1ccc2nc(Nc3ccc(Oc4nccnc4C4CCOCC4)cc3)sc2c1 [drawing 872] |
| 0.00254 µM | O=C(c1ccc(Oc2nccnc2N2CC[C@H](CO)C2)cc1)c1nc2ccccc2[nH]1 |

same assay, conditions: PDE10 enzyme inhibition; chiral compounds separated from racemic mixtures; read-out: IC50

| Compound | IC50 |
| --- | --- |
| CCOC(=O)[C@@H]1CCCN(c2nccnc2Oc2ccc(C(=O)c3nc4ccccc4[nH]3)cc2)C1 [Example 263, (R)-ethyl 1-(3-(4-(1H-benzo[d]imidazole-2-carbonyl)phenoxy)pyrazin-2-yl)piperidine-3-carboxylate] | < 0.025 µM |
| O=C(c1ccc(Oc2nccnc2[C@H]2CCC[C@H](O)C2)cc1)c1nc2ccccc2[nH]1 [Example 273, (1H-benzo[d]imidazol-2-yl)(4-(3-((1S,3S)-3-hydroxycyclohexyl)pyrazin-2-yloxy)phenyl) methanone] | < 0.025 µM |
| O=C(c1ccc(Oc2nccnc2[C@H]2CCC[C@@H](O)C2)cc1)c1nc2ccccc2[nH]1 [Example 270, (1H-benzo[d]imidazol-2-yl)(4-(3-((1S,3R)-3-hydroxycyclohexyl)pyrazin-2-yloxy)phenyl) methanone] | < 0.025 µM |

Now from value to compound:

| IC50 | Compound |
| --- | --- |
| < 0.025 µM | C[C@H]1CN(c2nccnc2Oc2ccc(Nc3nc4ccccc4s3)cc2)CC(=O)N1 [Example 268, (S)-4-(3-(4-(benzo[d]thiazol-2-ylamino)phenoxy)pyrazin-2-yl)-6-methylpiperazin-2-one] |
| < 0.025 µM | COC(=O)[C@@H]1CCN(c2nccnc2Oc2ccc(C(=O)c3nc4ccccc4[nH]3)cc2)C1 [Example 266, (R)-methyl 1-(3-(4-(1H-benzo[d]imidazole-2-carbonyl)phenoxy)pyrazin-2-yl)pyrrolidine-3-carboxylate] |
